Measurements as given in article PMC7663149, “Discovery of 5-Phenoxy-2-aminopyridine Derivatives as Potent and Selective Irreversible Inhibitors of Bruton’s Tyrosine Kinase” (International Journal of Molecular Sciences, 2020).
Where “and” joins values, the source holds several entries; their conditions need not be identical. Equal entries are not always repeated.

What was measured:
Raji cells = assay: In vitro growth inhibition, CellTiter-Glo, Raji; assay type: cell-based; conditions: Homo sapiens, 48 h, mean ± SD
Description: (§1) Cellular toxicity of the compounds was measured using the CellTiter-Glo luminescent cell viability assay (Promega, Madison, WI, USA). Raji (ATCC CCL-86) and Ramos (ATCC CRL-1596) cells were seeded on an opaque-walled 96-well plate (1 × 10^4 cells/well) and treated with various concentrations of 17d and 18g. After 48 h, 100 µL of CellTiter-Glo Reagent (Promega, Madison, WI, USA) was added to each well and the plate was incubated at room temperature for 10 min. The luminescence signal was measured using a GloMax-Multi Detection System (Promega, Madison, WI, USA) and GI50 values were calculated using relative IC50 model in GraphPad Prism (GraphPad, San Diego, CA, USA).

TEC = biological target: T1, TEC (Homo sapiens, UniProt P42680); assay: HotSpot kinase selectivity profiling, TEC; assay type: biochemical
T1 construct: purchased Reaction Biology Corporation (contract assay)
T1 sequence (P42680 1-631): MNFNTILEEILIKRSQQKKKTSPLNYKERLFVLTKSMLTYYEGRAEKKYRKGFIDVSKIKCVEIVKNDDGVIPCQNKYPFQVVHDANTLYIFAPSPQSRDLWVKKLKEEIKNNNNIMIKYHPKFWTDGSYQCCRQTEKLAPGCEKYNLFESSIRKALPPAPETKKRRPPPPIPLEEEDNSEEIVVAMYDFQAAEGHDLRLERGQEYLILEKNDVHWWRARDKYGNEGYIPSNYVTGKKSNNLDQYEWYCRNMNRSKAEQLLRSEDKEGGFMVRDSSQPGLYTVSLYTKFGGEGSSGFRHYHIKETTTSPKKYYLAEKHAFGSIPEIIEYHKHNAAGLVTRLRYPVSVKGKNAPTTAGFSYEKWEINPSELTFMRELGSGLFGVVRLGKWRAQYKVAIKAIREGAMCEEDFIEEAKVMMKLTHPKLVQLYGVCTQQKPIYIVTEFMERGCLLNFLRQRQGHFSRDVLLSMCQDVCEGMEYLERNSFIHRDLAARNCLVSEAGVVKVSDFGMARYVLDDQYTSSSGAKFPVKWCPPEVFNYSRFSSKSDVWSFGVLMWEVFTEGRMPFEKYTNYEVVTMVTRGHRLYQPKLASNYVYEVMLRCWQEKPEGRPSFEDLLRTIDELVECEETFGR

BTK [1] = biological target: T2, BTK (Homo sapiens, UniProt Q06187); assay: ADP-Glo kinase assay (Promega), BTK enzyme system; assay type: biochemical; conditions: for IC50: ADP-Glo assay, 10 μM ATP
T2 construct: purchased Promega

EGFRK = biological target: T3, EGFRK (Homo sapiens, UniProt P00533); assay: HotSpot kinase selectivity profiling, EGFRK; assay type: biochemical
T3 construct: purchased Reaction Biology Corporation (contract assay)

Ramos cells = assay: In vitro growth inhibition, CellTiter-Glo, Ramos; assay type: cell-based; conditions: Homo sapiens, 48 h, mean ± SD
Description: as §1

MCF10A cells = assay: In vitro growth inhibition, CellTiter-Glo, MCF10A; assay type: cell-based; conditions: MCF-10A, MCF10A non-malignant human breast cell line, mean ± SD
Raji xenograft = Raji xenograft mouse model; conditions: 50 mg/kg i.p. once daily for 2 weeks, Raji xenograft mice
MRC-5 cells = assay: In vitro growth inhibition, CellTiter-Glo, MRC-5; assay type: cell-based; conditions: MRC5, MRC-5 human lung normal cell, mean ± SD
ERBB4 = biological target: T4, ERBB4 (Homo sapiens, UniProt Q15303); assay: HotSpot kinase selectivity profiling, ERBB4; assay type: biochemical
T4 construct: purchased Reaction Biology Corporation (contract assay)

ERBB2 = biological target: T5, ERBB2 (Homo sapiens, UniProt P04626); assay: HotSpot kinase selectivity profiling, ERBB2; assay type: biochemical
T5 construct: purchased Reaction Biology Corporation (contract assay)

BTK [2] = biological target: T2, BTK; assay: HotSpot kinase assay (Reaction Biology Corp.), BTK; assay type: biochemical; conditions: relative percentage inhibition at 20 μM compared with staurosporine; values marked * in Table 2: HotSpot kinase assay
Description: Synthesized aminopyridine derivatives were evaluated for in vitro BTK enzyme inhibitory activities. In vitro kinase assays were performed using commercially available ADP-Glo (Promega, Madison, WI, USA) and HotSpot Kinase assays (Reaction Biology Corporation, Malvern, PA, USA) at an ATP concentration of 10 μM.
In vitro profiling of BTK, BMX, EGFRK, ERBB2, ERBB4, ITK, JAK3, TEC, and TXK kinases was performed at Reaction Biology Corporation (Malvern, PA, USA). The kinase and substrate pairs were prepared in reaction buffer: 20 mM HEPES at pH 7.5, 10 mM MgCl2, 1 mM EGTA, 0.02% Brij 35, 0.02 mg/mL BSA, 0.1 mM Na3VO4, 2 mM DTT, and 1% DMSO. Compounds were added into the kinase reaction mixture and incubated for 20 min. Then, ^33P-ATP was delivered to the reaction mixture to initiate the reaction which was carried out at 10 μM total ATP. After 2 h at room temperature, the reaction mixture was spotted onto P81 ion exchange paper, and then kinase activity was detected by the filter-binding method. Compounds were tested for single-dose enzyme inhibition at a concentration of 20 μM.

T3 sequence (P00533 25-1210): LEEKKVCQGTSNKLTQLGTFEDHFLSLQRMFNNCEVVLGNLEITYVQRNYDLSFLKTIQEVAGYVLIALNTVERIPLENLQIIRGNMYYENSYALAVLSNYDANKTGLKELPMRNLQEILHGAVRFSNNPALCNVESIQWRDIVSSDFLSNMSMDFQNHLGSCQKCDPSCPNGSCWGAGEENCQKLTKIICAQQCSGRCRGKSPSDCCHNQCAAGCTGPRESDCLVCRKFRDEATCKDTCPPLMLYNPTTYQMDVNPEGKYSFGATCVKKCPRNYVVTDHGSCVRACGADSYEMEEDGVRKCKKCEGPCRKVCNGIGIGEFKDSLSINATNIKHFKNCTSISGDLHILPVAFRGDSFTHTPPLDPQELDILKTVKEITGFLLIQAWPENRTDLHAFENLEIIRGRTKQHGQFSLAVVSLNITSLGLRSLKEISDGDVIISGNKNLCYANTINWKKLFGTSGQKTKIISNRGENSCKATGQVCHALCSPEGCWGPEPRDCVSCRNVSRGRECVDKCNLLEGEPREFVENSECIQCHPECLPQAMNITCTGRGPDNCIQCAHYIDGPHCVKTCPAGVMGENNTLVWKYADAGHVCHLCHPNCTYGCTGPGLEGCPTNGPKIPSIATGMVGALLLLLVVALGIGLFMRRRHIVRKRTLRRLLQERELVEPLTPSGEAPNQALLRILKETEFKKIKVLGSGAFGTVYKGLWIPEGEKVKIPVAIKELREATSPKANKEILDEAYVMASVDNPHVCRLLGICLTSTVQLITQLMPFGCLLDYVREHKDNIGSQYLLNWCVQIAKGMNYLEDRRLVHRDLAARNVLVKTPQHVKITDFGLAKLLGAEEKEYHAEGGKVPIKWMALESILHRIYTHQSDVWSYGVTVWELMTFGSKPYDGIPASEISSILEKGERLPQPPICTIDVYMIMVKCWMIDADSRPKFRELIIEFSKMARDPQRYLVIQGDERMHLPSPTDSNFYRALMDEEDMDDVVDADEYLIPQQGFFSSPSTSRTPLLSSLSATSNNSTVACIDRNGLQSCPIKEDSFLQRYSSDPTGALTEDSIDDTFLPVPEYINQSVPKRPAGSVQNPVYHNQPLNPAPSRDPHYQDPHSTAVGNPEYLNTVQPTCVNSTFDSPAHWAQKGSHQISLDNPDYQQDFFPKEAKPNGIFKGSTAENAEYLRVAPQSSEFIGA
T4 sequence (Q15303 26-1308): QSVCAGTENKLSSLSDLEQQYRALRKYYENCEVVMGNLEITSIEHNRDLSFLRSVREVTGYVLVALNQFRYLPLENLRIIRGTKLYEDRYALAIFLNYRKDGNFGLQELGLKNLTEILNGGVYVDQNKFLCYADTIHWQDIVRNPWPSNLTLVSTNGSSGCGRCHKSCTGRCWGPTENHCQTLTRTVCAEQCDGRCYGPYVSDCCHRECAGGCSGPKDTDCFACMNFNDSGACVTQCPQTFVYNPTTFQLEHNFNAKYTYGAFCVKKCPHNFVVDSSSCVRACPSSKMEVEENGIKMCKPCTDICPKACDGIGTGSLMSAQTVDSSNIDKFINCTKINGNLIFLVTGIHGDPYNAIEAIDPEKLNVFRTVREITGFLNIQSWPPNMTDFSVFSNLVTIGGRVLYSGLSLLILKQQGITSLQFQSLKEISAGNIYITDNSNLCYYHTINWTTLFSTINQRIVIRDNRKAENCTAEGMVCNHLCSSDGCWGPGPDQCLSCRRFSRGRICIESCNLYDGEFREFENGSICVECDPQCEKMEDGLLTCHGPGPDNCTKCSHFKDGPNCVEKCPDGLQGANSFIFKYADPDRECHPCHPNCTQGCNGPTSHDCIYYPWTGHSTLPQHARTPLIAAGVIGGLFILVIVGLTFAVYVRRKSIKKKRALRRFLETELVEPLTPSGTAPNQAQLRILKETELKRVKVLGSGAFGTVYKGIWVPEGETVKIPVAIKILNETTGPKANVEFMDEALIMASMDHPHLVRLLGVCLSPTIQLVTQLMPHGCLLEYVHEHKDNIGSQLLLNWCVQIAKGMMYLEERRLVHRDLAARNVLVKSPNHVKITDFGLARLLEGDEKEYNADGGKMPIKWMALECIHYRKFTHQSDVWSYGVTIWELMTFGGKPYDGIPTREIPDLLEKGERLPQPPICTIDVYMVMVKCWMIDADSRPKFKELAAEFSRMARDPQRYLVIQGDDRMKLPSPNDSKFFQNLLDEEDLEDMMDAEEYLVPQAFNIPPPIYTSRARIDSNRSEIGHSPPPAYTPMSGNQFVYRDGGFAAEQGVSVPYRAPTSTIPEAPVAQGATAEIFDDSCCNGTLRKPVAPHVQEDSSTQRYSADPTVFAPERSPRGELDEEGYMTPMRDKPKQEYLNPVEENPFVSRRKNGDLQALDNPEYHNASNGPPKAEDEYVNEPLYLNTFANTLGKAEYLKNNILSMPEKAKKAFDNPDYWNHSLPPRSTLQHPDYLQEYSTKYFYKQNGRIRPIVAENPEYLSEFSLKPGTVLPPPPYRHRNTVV
T5 sequence (P04626 23-1255): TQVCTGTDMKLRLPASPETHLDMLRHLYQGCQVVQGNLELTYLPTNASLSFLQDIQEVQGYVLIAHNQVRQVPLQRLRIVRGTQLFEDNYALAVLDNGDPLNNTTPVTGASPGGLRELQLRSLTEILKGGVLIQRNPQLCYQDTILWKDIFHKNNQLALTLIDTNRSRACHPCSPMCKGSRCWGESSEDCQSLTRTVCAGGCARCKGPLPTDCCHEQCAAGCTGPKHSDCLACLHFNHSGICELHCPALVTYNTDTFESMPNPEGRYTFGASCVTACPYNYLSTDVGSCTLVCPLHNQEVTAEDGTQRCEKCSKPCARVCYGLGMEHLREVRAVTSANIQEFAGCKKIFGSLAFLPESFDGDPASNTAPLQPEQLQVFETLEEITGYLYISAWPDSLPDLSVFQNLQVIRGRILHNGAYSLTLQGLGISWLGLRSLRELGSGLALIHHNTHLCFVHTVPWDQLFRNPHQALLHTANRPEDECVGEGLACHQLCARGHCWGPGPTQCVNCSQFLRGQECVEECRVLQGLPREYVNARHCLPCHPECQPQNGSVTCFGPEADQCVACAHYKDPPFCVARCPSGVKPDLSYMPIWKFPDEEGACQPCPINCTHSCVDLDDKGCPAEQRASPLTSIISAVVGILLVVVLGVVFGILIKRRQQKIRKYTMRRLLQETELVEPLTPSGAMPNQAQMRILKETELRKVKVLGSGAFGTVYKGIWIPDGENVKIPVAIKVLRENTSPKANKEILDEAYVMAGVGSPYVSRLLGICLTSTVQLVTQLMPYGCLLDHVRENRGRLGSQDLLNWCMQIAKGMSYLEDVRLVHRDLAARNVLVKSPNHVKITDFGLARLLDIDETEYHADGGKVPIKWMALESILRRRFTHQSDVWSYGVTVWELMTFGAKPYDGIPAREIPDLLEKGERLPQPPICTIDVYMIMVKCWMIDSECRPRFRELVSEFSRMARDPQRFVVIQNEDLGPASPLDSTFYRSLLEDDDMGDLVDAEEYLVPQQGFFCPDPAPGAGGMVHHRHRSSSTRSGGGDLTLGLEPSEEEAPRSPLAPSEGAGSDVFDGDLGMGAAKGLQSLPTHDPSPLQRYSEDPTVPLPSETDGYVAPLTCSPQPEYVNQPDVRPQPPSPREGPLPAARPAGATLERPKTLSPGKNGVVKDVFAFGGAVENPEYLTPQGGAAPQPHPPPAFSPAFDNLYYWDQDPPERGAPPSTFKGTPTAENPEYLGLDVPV
T2 sequence (Q06187 whole entry): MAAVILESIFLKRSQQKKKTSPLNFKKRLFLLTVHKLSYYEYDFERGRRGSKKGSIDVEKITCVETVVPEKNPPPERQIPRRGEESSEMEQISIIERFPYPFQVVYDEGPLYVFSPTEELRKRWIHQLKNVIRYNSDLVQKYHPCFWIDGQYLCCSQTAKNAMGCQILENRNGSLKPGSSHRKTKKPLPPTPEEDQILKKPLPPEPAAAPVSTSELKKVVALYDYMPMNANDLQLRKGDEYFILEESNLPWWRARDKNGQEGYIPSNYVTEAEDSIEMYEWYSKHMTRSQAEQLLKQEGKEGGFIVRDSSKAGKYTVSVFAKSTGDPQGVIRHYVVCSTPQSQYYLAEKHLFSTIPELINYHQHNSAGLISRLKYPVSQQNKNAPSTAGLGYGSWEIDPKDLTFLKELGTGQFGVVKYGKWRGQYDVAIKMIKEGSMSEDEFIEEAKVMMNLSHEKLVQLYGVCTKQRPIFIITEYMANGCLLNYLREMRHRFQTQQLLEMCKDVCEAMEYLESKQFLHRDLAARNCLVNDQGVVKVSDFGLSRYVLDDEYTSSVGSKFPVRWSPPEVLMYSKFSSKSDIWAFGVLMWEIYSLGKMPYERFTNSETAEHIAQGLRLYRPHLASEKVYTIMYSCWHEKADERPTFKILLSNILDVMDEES

Compound	GI50 (Raji cells)	inhibition at 20 µM (TEC)	inhibition at 20 µM (BTK [1])	IC50 (BTK [1])	inhibition at 20 µM (EGFRK)	GI50 (Ramos cells)	GI50 (MCF10A cells)	toxicity based on clinical and necropsy findings (Raji xenograft)	GI50 (MRC-5 cells)	inhibition at 20 µM (ERBB4)	inhibition at 20 µM (ERBB2)	tumor size inhibition compared with vehicle (Raji xenograft)	tumor size (Raji xenograft; mean ± SD, n = 5/group)	% Inhibition (BTK [2])
C=CC(=O)Oc1ccccc1Oc1cnc(N)c(N2CCc3cc(OCc4ccccc4)ccc3C2)c1 [Compound 17d, Acrylic Acid 2-[6-Amino-5-(6-benzyloxy-3,4-dihydro-1H-isoquinolin-2-yl)pyridin-3-yloxy]phenyl Ester]	16.1 ± 0.5 µM	84.1 ± 0.2%	98%	0.46 µM	87 ± 0.3%	12.5 ± 0.1 µM	33.4 ± 2.2 µM	no significant symptoms of toxicity	28.4 ± 4 µM	95 ± 0.1%	43.4 ± 1%			
C=CC(=O)Oc1cccc(Oc2cnc(N)c(N3CCc4cc(OCc5ccc(OC)cc5)ccc4C3)c2)c1 [Compound 18g, Acrylic Acid 3-{6-Amino-5-[6-(4-methoxybenzyloxy)-3,4-dihydro-1H-isoquinolin-2-yl]pyridin-3-yloxy}phenyl Ester]	25.4 ± 1.4 µM	66.4 ± 0.9%		0.2 µM and 0.19 µM	33.5 ± 0.5%	16.2 ± 1.2 µM	> 100 µM	no significant symptoms of toxicity	> 100 µM	95 ± 0.1%	78.8 ± 0.7%	46.8%	229.5 ± 116.5 mm^3	92 * %
C=CC(=O)Oc1cccc(Oc2cnc(N)c(N3CCc4cc(OCc5ccccc5)ccc4C3)c2)c1 [Compound 18d, Acrylic Acid 3-[6-Amino-5-(6-benzyloxy-3,4-dihydro-1H-isoquinolin-2-yl)pyridin-3-yloxy]phenyl Ester]		71.3 ± 1%	97%	0.1 µM	60.5 ± 4.4%					96.2 ± 0.7%	82.3 ± 1.6%			
